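All cell lines were grown in 96-well plates and treated with compound for 48 hours. TGI denotes the concentration required for complete inhibition of growth.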
Assays:
Test in all cases: inhibition of tumour cell growth, NCI panel, 48 h
[1] = tested on: A549 NSCLC
[2] = tested on: RXF 393 renal
[3] = tested on: MALME-3M melanoma
[4] = tested on: SN12C renal
[5] = tested on: IGROV1 ovarian
[6] = tested on: K-562 leukemia
[7] = tested on: SK-OV-3 ovarian
[8] = tested on: HCT-116 colon
[9] = tested on: SNB-19 CNS
[10] = tested on: NCI-H460 lung
[11] = tested on: HS 578T breast
[12] = tested on: UACC-257 melanoma
[13] = tested on: EKVX NSCLC
[14] = tested on: SK-MEL-2 melanoma
[15] = tested on: U251 CNS
[16] = tested on: CCRF-CEM leukemia
[17] = tested on: RPMI-8226 leukemia
[18] = tested on: 786-0 renal
[19] = tested on: SF-268 CNS
[20] = tested on: UACC-62 melanoma
[21] = tested on: OVCAR-4 ovarian
[22] = tested on: ACHN renal
[23] = tested on: TK-10 renal
[24] = tested on: DU-145 prostate
[25] = tested on: MDA-MB-231 breast
[26] = tested on: HL-60(TB) leukemia
[27] = tested on: SK-MEL-5 melanoma
[28] = tested on: NCI-H522 lung
[29] = tested on: MDA-MB-435
[30] = tested on: MOLT-4 leukemia
[31] = tested on: T-47D breast
[32] = tested on: COLO 205 colon
[33] = tested on: LOX IMVI melanoma
[34] = tested on: MCF7 breast
[35] = tested on: OVCAR-3 ovarian
[36] = tested on: NCI-H23 lung
[37] = tested on: PC-3 prostate
[38] = tested on: HCC-2998 colon
[39] = tested on: MDA-N
[40] = tested on: SW-620 colon
[41] = tested on: SF-295 CNS
[42] = tested on: SF-539 CNS
[43] = tested on: CAKI-1 renal
[44] = tested on: M14 melanoma
[45] = tested on: SNB-75 CNS
[46] = tested on: HOP-62 NSCLC
[47] = tested on: OVCAR-5 ovarian
[48] = tested on: HOP-92 NSCLC
[49] = tested on: UO-31 renal
[50] = tested on: SR leukemia
[51] = tested on: A498 renal
[52] = tested on: SK-MEL-28 melanoma
[53] = tested on: HCT-15 colon
[54] = tested on: KM12 colon
[55] = tested on: HT29 colon
[56] = tested on: NCI/ADR-RES ovarian
[57] = tested on: OVCAR-8 ovarian
[58] = tested on: NCI-H226 lung
[59] = tested on: BT-549 breast

`CC(O)CNC1=CC(=O)C(=O)c2ccccc21` (configuration not stated) was tested, and the TGI [1] was 39.5 µM, the TGI [2] was > 100 µM and the TGI [3] was 17.7 µM. For the same molecule, the TGI [4] was 34.9 µM, the TGI [5] was 33.8 µM and the TGI [6] was > 100 µM. For the same molecule, the TGI [7] was > 100 µM, the TGI [8] was 33.9 µM and the TGI [9] was 32 µM. The TGI [10] was 30.6 µM, the TGI [11] was 61.8 µM and the TGI [12] was 30.3 µM. It also gave a TGI [13] of 40.2 µM, a TGI [14] of 32.9 µM and a TGI [15] of 30.6 µM. The TGI [16] was > 100 µM, the TGI [17] was 48 µM and the TGI [18] was 32.2 µM. For the same molecule, the TGI [19] was 33.9 µM, the TGI [20] was 26.8 µM and the TGI [21] was 26 µM. The TGI [22] was 35.6 µM, the TGI [23] was 70.4 µM and the TGI [24] was 29.1 µM. The TGI [25] was 73.6 µM, the TGI [26] was 84.4 µM and the TGI [27] was 15 µM. For the same molecule, the TGI [28] was 41.8 µM, the TGI [29] was 23.9 µM and the TGI [30] was 59.9 µM. For the same molecule, the TGI [31] was 45.2 µM, the TGI [32] was 22 µM and the TGI [33] was 34.8 µM. It also gave a TGI [34] of 48.7 µM, a TGI [35] of 13.4 µM and a TGI [36] of 39.1 µM. For the same molecule, the TGI [37] was > 100 µM, the TGI [38] was 26.5 µM and the TGI [39] was 34.5 µM. The TGI [40] was 40.1 µM, the TGI [41] was 27 µM and the TGI [42] was 38.5 µM. It also gave a TGI [43] of 33.5 µM, a TGI [44] of 32.1 µM and a TGI [45] of 29.8 µM. For the same molecule, the TGI [46] was 32.4 µM, the TGI [47] was 35.6 µM and the TGI [48] was 53.3 µM. The TGI [49] was 34 µM, the TGI [50] was > 100 µM and the TGI [51] was 62.9 µM. It also gave a TGI [52] of 35 µM, a TGI [53] of 33.6 µM and a TGI [54] of 56.2 µM.
With `Cc1cnc2[nH]c(-c3cccc(F)c3)cc(=O)c2c1` the TGI [1] was > 100 µM, the TGI [2] was > 100 µM and the TGI [3] was > 100 µM. For the same molecule, the TGI [55] was 0.806 µM, the TGI [4] was > 100 µM and the TGI [5] was > 100 µM. For the same molecule, the TGI [6] was > 100 µM, the TGI [56] was 0.0395 µM and the TGI [7] was > 100 µM. For the same molecule, the TGI [11] was 0.0448 µM, the TGI [12] was > 100 µM and the TGI [13] was > 100 µM. For the same molecule, the TGI [15] was > 100 µM, the TGI [17] was > 43 µM and the TGI [18] was > 83.6 µM. For the same molecule, the TGI [19] was > 100 µM, the TGI [20] was > 100 µM and the TGI [21] was > 100 µM. The TGI [22] was > 100 µM, the TGI [24] was 1.3 µM and the TGI [25] was 0.614 µM. It also gave a TGI [26] of 0.0628 µM, a TGI [28] of 0.108 µM and a TGI [29] of 0.0228 µM. For the same molecule, the TGI [30] was > 100 µM, the TGI [31] was > 100 µM and the TGI [32] was 0.0582 µM. The TGI [33] was > 100 µM, the TGI [35] was 0.0373 µM and the TGI [36] was 2.03 µM. The TGI [57] was 1.5 µM, the TGI [58] was 4.43 µM and the TGI [39] was 0.027 µM. The TGI [42] was 0.263 µM, the TGI [43] was > 100 µM and the TGI [45] was > 100 µM. For the same molecule, the TGI [46] was > 100 µM, the TGI [47] was > 100 µM and the TGI [48] was > 100 µM. For the same molecule, the TGI [49] was > 100 µM, the TGI [50] was 0.378 µM and the TGI [52] was > 100 µM. The TGI [53] was 2.59 µM and the TGI [54] was 1.7 µM.
In the case of `COCC#C[C@@]1(O)CCCCC1CC(OC)OC` (some centres not stated), the TGI [1] is reported as > 100 µM, the TGI [2] is reported as > 100 µM and the TGI [3] is reported as > 100 µM. The TGI [55] was > 100 µM, the TGI [4] was > 100 µM and the TGI [5] was > 100 µM. For the same molecule, the TGI [6] was > 100 µM, the TGI [56] was > 100 µM and the TGI [7] was > 100 µM. The TGI [8] was > 100 µM, the TGI [9] was > 100 µM and the TGI [10] was > 100 µM. For the same molecule, the TGI [11] was > 100 µM, the TGI [12] was > 100 µM and the TGI [13] was > 100 µM. For the same molecule, the TGI [14] was > 100 µM, the TGI [15] was > 100 µM and the TGI [16] was > 100 µM. The TGI [17] was 94.5 µM, the TGI [18] was > 100 µM and the TGI [19] was > 100 µM. For the same molecule, the TGI [20] was > 100 µM, the TGI [21] was > 100 µM and the TGI [22] was > 100 µM. The TGI [23] was > 100 µM, the TGI [24] was > 100 µM and the TGI [25] was > 100 µM. The TGI [26] was > 100 µM, the TGI [27] was > 100 µM and the TGI [28] was 82.5 µM. The TGI [29] was > 100 µM, the TGI [30] was > 100 µM and the TGI [31] was > 100 µM. The TGI [32] was > 100 µM, the TGI [33] was > 100 µM and the TGI [34] was > 100 µM. The TGI [36] was > 100 µM, the TGI [57] was > 100 µM and the TGI [58] was > 100 µM. For the same molecule, the TGI [37] was > 100 µM, the TGI [38] was > 100 µM and the TGI [39] was > 100 µM. For the same molecule, the TGI [41] was > 100 µM, the TGI [43] was > 100 µM and the TGI [44] was > 100 µM. The TGI [45] was > 100 µM, the TGI [46] was > 100 µM and the TGI [47] was > 100 µM. The TGI [48] was > 100 µM, the TGI [49] was > 100 µM and the TGI [50] was > 100 µM. The TGI [51] was > 100 µM, the TGI [52] was > 100 µM and the TGI [53] was > 100 µM. For the same molecule, the TGI [54] was > 100 µM.
`CC(CO)[C@H]1OC(=O)C=C2[C@@]13O[C@@H]3[C@H]1OC(=O)[C@@]3(C)[C@H]4O[C@H]4C[C@@]2(C)[C@@H]13` (some centres not stated) was tested, and the TGI [59] was 8.2 µM, the TGI [1] was > 39.8 µM and the TGI [2] was 6.33 µM. The TGI [3] was 8.46 µM, the TGI [55] was 20.7 µM and the TGI [4] was 13.6 µM. The TGI [5] was 12 µM, the TGI [6] was > 100 µM and the TGI [7] was > 57 µM. For the same molecule, the TGI [8] was > 28 µM, the TGI [9] was > 30.8 µM and the TGI [10] was > 24.4 µM. The TGI [11] was 12.6 µM, the TGI [12] was > 26.1 µM and the TGI [13] was 18.3 µM. The TGI [14] was 11.1 µM, the TGI [15] was > 100 µM and the TGI [17] was 8.75 µM. The TGI [18] was > 28.1 µM, the TGI [19] was > 25.8 µM and the TGI [20] was 7.36 µM. For the same molecule, the TGI [21] was > 24.3 µM, the TGI [22] was 4 µM and the TGI [23] was > 28.2 µM. The TGI [24] was > 27.1 µM, the TGI [25] was > 29.6 µM and the TGI [27] was > 37.5 µM. The TGI [28] was 5.38 µM, the TGI [29] was 18.4 µM and the TGI [30] was 3.65 µM. For the same molecule, the TGI [31] was > 46.1 µM, the TGI [33] was 1.14 µM and the TGI [34] was 8.05 µM. The TGI [35] was > 30.1 µM, the TGI [36] was > 36.6 µM and the TGI [57] was 9.02 µM. The TGI [58] was 5.47 µM, the TGI [37] was 23.1 µM and the TGI [38] was 8.58 µM. For the same molecule, the TGI [39] was 14 µM, the TGI [40] was > 100 µM and the TGI [41] was > 33.4 µM. The TGI [43] was 8.25 µM, the TGI [44] was > 22.8 µM and the TGI [45] was 6.05 µM. The TGI [46] was > 100 µM, the TGI [47] was > 87.9 µM and the TGI [48] was > 26.9 µM. For the same molecule, the TGI [49] was 6.41 µM, the TGI [50] was 0.982 µM and the TGI [51] was > 29.4 µM. The TGI [52] was > 100 µM, the TGI [53] was > 31 µM and the TGI [54] was 14.9 µM.

— PubChem BioAssay (NCI)
